How the values were obtained:
[1] = compared with normal Aβ; ref [9]; cited from earlier work
From the text: We hypothesized that the contribution of isoD7-Aβ to the development of AD is based on the formation of zinc-bound complexes that promote pathological aggregation of Aβ (Fig. 1A).

isoD7-Aβ16 = assay: NMR titration, isoD7-Aβ16 with HAEE and Zn2+; format: binding; conditions: addition of Zn2+ without HAEE; disappearance of NMR signal (Supplementary Fig. 3); also ref [9]
Method: Peptides Aβ16, H6R-Aβ16 and isoD7-Aβ16 at the concentration of 0.2 - 8mM were dissolved in 10-20 mM bis-Tris-d19 (2,2-Bis(hydroxymethyl)-2,2′,2"-nitrilotrie-thanol-d19 with 98% ^2D enrichment) buffer solution (pH 6.8). Sodium salt of 3-(trimethylsilyl) propionic-2,2,3,3-d4 acid (DSS) at a concentration of 10-20 μM was added as the standard. NMR spectra were measured at 278 K in 90% H2O/10% D2O with Bruker AVANCE 600 MHz spectrometer equipped with triple resonance (^1H, ^13C and ^15N) pulsed field z gradient probe. 1D NMR spectra were processed and analyzed using the Mnova software (Mestrelab Research, Spain). In order to monitor peptide-peptide interactions NMR titration experiments were carried out. […] 1D spectra were recorded for each titration point.

transgenic mice = conditions: in contrast to normal Aβ; ref [23], [24]; cited from earlier work
From the text: The development of AD comprises a cascade of pathogenic processes in brain tissue. Some of the major elements of this cascade are the aggregation of beta-amyloid (Aβ) with the formation of neurotoxic oligomers, hyperphosphorylation of tau, and neuroinflammation. […] In the sporadic form of AD, accounting for 95% of disease cases, the molecular triggers for the pathological cascade remain unknown. […] We hypothesized that the contribution of isoD7-Aβ to the development of AD is based on the formation of zinc-bound complexes that promote pathological aggregation of Aβ (Fig. 1A). […] Interaction of HAEE with beta-amyloid. (A) A model for the contribution of isoD7-Aβ to AD pathology, and the possible ways of preventing its deleterious effects. Aβ spontaneously converts into isoD7-Aβ, which is accumulated over age, likely due to reduced Aβ clearance. Isomerized Aβ promotes AD pathology, potentially via formation of Zn-bound complexes serving as the seeds for a generation of neurotoxic oligomers. Treatment with anti-isoAβ antibodies is a promising therapeutic strategy already showing effectiveness in AD model mice ^9.

H6R-Aβ16 = conditions: ref [9]; cited from earlier work
From the text: The dimeric form has a well-resolved characteristic signal of the V12 methyl group at 0.2 ppm, which allows for a quantitative assessment of the dimeric state. […] Thus, the ...

Ac-DAEFRH[isoD]SGYEVHHQK-NH2 [isoD7-Aβ16, reference compound]
Zinc-dependent aggregation [1]: increased capacity | Effect of Zn2+ on isoD7-Aβ16 (oligomerization; NMR signal) (isoD7-Aβ16): almost complete oligomerization and precipitation | Amyloidosis in transgenic mice (transgenic mice): stimulate amyloidosis

Ac-DAEFRRDSGYEVHHQK-NH2 [H6R-Aβ16, Aβ1-16 variant with the English (H6R) mutation]
State of H6R-Aβ16 in the presence of Zn2+ (H6R-Aβ16): mixture of monomeric and dimeric forms

Source: publication PMC10017155 (Aging and Disease, 2023)
